Reference: patent US10918648B2, “Estrogen receptor modulator combinations” (The Regents of the University of California, priority 2016, dated 2021)
Read-outs that look alike come from different tables or passages of the source.

Legend:
MCF-7 parental cells = settings: MCF-7 parental xenografts in nude mice; cited from earlier work
ER+ early breast cancer = settings: cited from earlier work
MCF-7/HER-2 cells = settings: MCF-7 cells with HER2-overexpression, xenografts in nude mice; cited from earlier work
A549 NSCLC cells = assay: NSCLC cell proliferation in vitro (MTS assay); format: cell-based, human; settings: 72 hours, MTS assay
H2122 NSCLC cells = assay: NSCLC cell proliferation in vitro (MTS assay); format: cell-based, human; settings: 72 hours
Method: (§1) Cell culture: Human breast and non-small cell lung cancer cells (MCF7, ZR75-1, MDAMB231, A549, H23, H1975, […]) were from ATCC. MCF7-HER2 were a kind gift of Dr. Dennis Slamon (23). Cell lines were routinely maintained in RPMI 1640 or DMEM medium with 10% fetal bovine serum (FBS) (Sigma-Aldrich) and 1% Antibiotic-Antimycotic solution 100× (Mediatech, Herndon, Va.). When indicated, for estrogen-free conditions, media was changed 48 h before experiments to phenol-red free RPMI 1640/DMEM with 1% dextran-coated, charcoal-treated (DCC)-FBS (24,25). Otherwise experiments were performed in phenol-red free RPMI 1640/DMEM medium with 5% DCC-FBS.
(§2) Cell proliferation assays: breast and lung tumor cells (between […]) were plated in 96 well plates using their respective medium with 10% FBS. For experiments using estradiol-17β, cells were rinsed with PBS and incubated with phenol redfree medium with 1% DCC-FBS for 48 hours as described before (24,25). Cells were then treated with different concentrations of SERDs ranging between 0.0001-100 μM. […] Cell counts and viability tests (Trypan blue) were done every 24 hr for 3 days. After 72 hr, proliferation was assessed with the MTS Assay CELLTITER 96® Aqueous Cell Proliferation Assay (Promega) or the Cell Proliferation ELISA, BrdU colorimetric assay (Roche). For the MTS, the absorbance of the formazan product was measured at 490 nanometer using the iMARK microplate reader from BIORAD. The BrdU ELISA assay is based on detection of BrdU incorporated into the genomic DNA of proliferating cells and an anti-BrdU antibody, the reaction product was quantified by measuring the absorbance at 370 nanometers using iMARK microplate reader from BIORAD. Cell numbers were also assessed initially by cell counts to confirm MTS/BrdU data. Experiments were done at least three times to confirm data.

H1975 NSCLC cells = assay: NSCLC cell proliferation in vitro (MTS assay); format: cell-based, human; settings: 72 hours
Method: as §1, §2

[1] = tested on: MCF-7 breast cancer cells; assay: MCF-7 breast cancer cell proliferation (BrdU ELISA) in presence of estradiol-17β; format: cell-based, human; settings: Homo sapiens, MCF7; 72 hrs in the presence of 1 nM estradiol-17β, BrdU ELISA; read-out: IC50 for inhibition of cell proliferation, MCF-7
Method: In experiments to assess potential proliferative effects of novel estrogen receptor ligands, human breast cancer cells were grown in phenol red-free, estrogen-free media with 1% dextran-coated charcoal-treated (DCC)-fetal bovine serum (FBS) for 48 hrs (15,44), then treated with either 1 μM or 50 μM doses of estrogen receptor antagonists in the presence of 1 nM estradiol-17β. Cell counts and viability tests (Trypan blue) were done every 24 hr for 3 days. After 72 hr, proliferation was assessed using the BrdU Cell proliferation ELISA (Roche). Cell numbers were also assessed initially by cell counts to confirm ELISA data. Each antiestrogen was tested at least in three different experiments.
In order to assess the antitumor action of novel estrogen receptor antagonists, we cultured human MCF-7 breast cancer cells with known expression of ERα. Cells were grown in 1% DCC-FBS for 48 hr and then treated with vehicle control or either 1 μM or 50 μM concentrations of antiestrogens JD 101-160 or the pure antiestrogen fulvestrant (FAS), all in the presence of 1 nM estradiol-170. […] Shown in FIG. 2A are results from MCF-7 cells grown in 1% DCC-FBS for 48 hr and then treated with vehicle control, 1 nM estradiol-170 and either 1 μM or 50 μM concentrations of antiestrogens JD 101-160 or the known pure antiestrogen fulvestrant (FAS) in the presence of 1 nM estradiol-170. Cell proliferation is expressed as percentage of that determined in the 1 nM estradiol-170-treated control group.
as §2

Rb serine-780 = Rb serine-780 phosphorylation, Western blot in A549 cells; format: cell-based, human; settings: 24 h, 1% DCC-FBS, 1 nM E2, 1 nM androstenedione, 10 nM testosterone, 10 μM letrozole, 100 nM palbociclib, FIG. 4C
Method: FIG. 4C. […] Cells were treated 24 h in phenol red-free RPMI with 1% DCC-FBS with vehicle control (CON), 1 nM estradiol-17β (E2), 1 nM androstenedione (And), 10 nM testosterone (Tes), 10 μM letrozole (AI), 100 nM palbociclib (Plbo) or both Plbo+AI. After 24 hr, cell lysates subjected to Western blot with antibody to phosphoserine-780 Rb or total Rb (Cell Signaling) (20). GAPDH is used as loading control.
To investigate the antitumor efficacy of CDK 4/6 inhibitor palbociclib in NSCLC cells, we assessed the effects of palbociclib alone and in combination with the hormonal therapeutic letrozole (see FIGS. 4B and 5B). The potential mechanism of action of palbociclib and letrozole in NSCLC cells was investigated by assay of the effects of these agents alone and combined on phosphorylation of Rb serine-780

[2] = Homo sapiens, A549, SERD alone, estrogen-depleted phenol red-free medium with 5% DCC-FBS, read-out: IC50 for inhibition of NSCLC cell proliferation, A549
[3] = Homo sapiens, NCI-H2122, SERD alone, estrogen-depleted phenol red-free medium with 5% DCC-FBS, read-out: IC50 for inhibition of NSCLC cell proliferation, H2122
[4] = Homo sapiens, NCI-H1975, SERD alone, estrogen-depleted phenol red-free medium with 5% DCC-FBS, read-out: IC50 for inhibition of NSCLC cell proliferation, H1975
[5] = Homo sapiens, A549, CDK 4/6 inhibitor without SERD, 5% DCC-FBS, read-out: IC50 for inhibition of NSCLC cell proliferation, A549
[6] = Homo sapiens, NCI-H2122, CDK 4/6 inhibitor without SERD, 5% DCC-FBS, read-out: IC50 for inhibition of NSCLC cell proliferation, H2122
[7] = Homo sapiens, NCI-H1975, CDK 4/6 inhibitor without SERD, 5% DCC-FBS, read-out: IC50 for inhibition of NSCLC cell proliferation, H1975

Compound: CC/C(=C(\c1ccccc1)c1ccc(OCCN(C)C)cc1)c1ccccc1 [tamoxifen]
- growth of parent tumors (xenografts) (MCF-7 parental cells): suppressed
- reduction in disease recurrence (ER+ early breast cancer): 39%
- reduction in mortality (ER+ early breast cancer): 31%
- sensitivity of MCF-7/HER-2 xenografts (MCF-7/HER-2 cells): insensitive

Compound: CN(C)CCCC(=O)Nc1ccc(O[C@H]2C[C@]3(C)[C@@H](O)CC[C@H]3[C@@H]3CCc4cc(O)ccc4[C@H]32)cc1C(F)(F)F [JD155, N-(4-(((8S,9S,11S,13S,14S,17S)-3,17-Dihydroxy-13-methyl-7,8,9,11,12,13,14,15,16,17-deca-hydro-6H-cyclopenta[a]phenanthren-11-yl)oxy)-2-(trifluoromethyl)phenyl)-4-(dimethylamino)butanamide]
- IC50 (A549 NSCLC cells; [2]): 2050 nM
- IC50 (H2122 NSCLC cells; [3]): 1220 nM
- IC50 (H1975 NSCLC cells; [4]): 4410 nM

Compound: CC(=O)c1c(C)c2cnc(Nc3ccc(N4CCNCC4)cn3)nc2n(C2CCCC2)c1=O [Palbociclib, palbociclib, reference compound]
- IC50 (A549 NSCLC cells; [5]): 3040 nM
- IC50 (H2122 NSCLC cells; [6]): 870 nM
- IC50 (H1975 NSCLC cells; [7]): 1180 nM

Compound: C[C@]12C[C@H](Oc3ccc(NCCN4CCOCC4)cc3)[C@@H]3c4ccc(O)cc4CC[C@H]3[C@@H]1CC[C@@H]2O [JD121]
- IC50 (A549 NSCLC cells; [2]): 1260 nM
- IC50 [1]: 360 nM
- IC50 (H2122 NSCLC cells; [3]): 14500 nM
- IC50 (H1975 NSCLC cells; [4]): 2620 nM

Compound: C[C@]12CCC(=O)C=C1CC[C@@H]1[C@@H]2CC[C@]2(C)C(=O)CC[C@@H]12 [androstenedione]
- phosphorylation of Rb serine-780 (Rb serine-780): stimulate Rb phosphorylation

Compound: C[C@]12C[C@H](Oc3ccc(NC(=O)CCCN4CCCCC4)c(C(F)(F)F)c3)[C@@H]3c4ccc(O)cc4CC[C@H]3[C@@H]1CC[C@@H]2O [JD160, N-(4-(((8S,9S,11S,13S,14S,17S)-3,17-Dihydroxy-13-methyl-7,8,9,11,12,13,14,15,16,17-deca-hydro-6H-cyclopenta[a]phenanthren-11-yl)oxy)-2-(trifluoromethyl)phenyl)-4-(piperidin-1-yl)butanamide]
- IC50 (A549 NSCLC cells; [2]): 1410 nM
- IC50 [1]: 320 nM
- IC50 (H2122 NSCLC cells; [3]): 2720 nM
- IC50 (H1975 NSCLC cells; [4]): 2020 nM

Compound: C[C@]12C[C@H](Oc3ccc(NC(=O)CN4CCOCC4)cc3)[C@@H]3c4ccc(O)cc4CC[C@H]3[C@@H]1CC[C@@H]2O [JD103, N-(4-(((8S,9S,11S,13S,14S,17S)-3,17-Dihydroxy-13-methyl-7,8,9,11,12,13,14,15,16,17-deca-hydro-6H-cyclopenta[a]phenanthren-11-yl)oxy)phenyl)-2-morpholinoacetamide]
- IC50 (A549 NSCLC cells; [2]): 1990 nM
- IC50 (A549 NSCLC cells; in the presence of 1 μM abemaciclib, 5% DCC-FBS, read-out: IC50 of SERD for inhibition of NSCLC cell proliferation, A549): 560 nM
- IC50 (A549 NSCLC cells; in the presence of 1 μM palbociclib, 5% DCC-FBS, read-out: IC50 of SERD for inhibition of NSCLC cell proliferation, A549): 1220 nM
- IC50 [1]: 740 nM
- IC50 (H2122 NSCLC cells; [3]): 1330 nM
- IC50 (H2122 NSCLC cells; in the presence of 1 μM abemaciclib, 5% DCC-FBS, read-out: IC50 of SERD for inhibition of NSCLC cell proliferation, H2122): 740 nM
- IC50 (H2122 NSCLC cells; in the presence of 1 μM palbociclib, 5% DCC-FBS, read-out: IC50 of SERD for inhibition of NSCLC cell proliferation, H2122): 2400 nM
- IC50 (H1975 NSCLC cells; [4]): 2100 nM
- IC50 (H1975 NSCLC cells; in the presence of 1 μM abemaciclib, 5% DCC-FBS, read-out: IC50 of SERD for inhibition of NSCLC cell proliferation, H1975): 2670 nM
- IC50 (H1975 NSCLC cells; in the presence of 1 μM palbociclib, 5% DCC-FBS, read-out: IC50 of SERD for inhibition of NSCLC cell proliferation, H1975): 4550 nM

Compound: C[C@]12C[C@H](Oc3ccc(NC(=O)CCCCN4CCCCC4)c(C(F)(F)F)c3)[C@@H]3c4ccc(O)cc4CC[C@H]3[C@@H]1CC[C@@H]2O [JD156, N-(4-(((8S,9S,11S,13S,14S,17S)-3,17-Dihydroxy-13-methyl-7,8,9,11,12,13,14,15,16,17-deca-hydro-6H-cyclopenta[a]phenanthren-11-yl)oxy)-2-(trifluoromethyl)phenyl)-5-(piperidin-1-yl)pentanamide]
- IC50 (A549 NSCLC cells; [2]): 1600 nM
- IC50 (H2122 NSCLC cells; [3]): 1690 nM
- IC50 (H1975 NSCLC cells; [4]): 3200 nM

Compound: C[C@]12CC[C@H]3[C@@H](CCC4=CC(=O)CC[C@@]43C)[C@@H]1CC[C@@H]2O [testosterone]
- phosphorylation of Rb serine-780 (Rb serine-780): stimulate Rb phosphorylation

Compound: CCN1CCN(Cc2ccc(Nc3ncc(F)c(-c4cc(F)c5nc(C)n(C(C)C)c5c4)n3)nc2)CC1 [Abemaciclib, abemaciclib, reference compound]
- IC50 (A549 NSCLC cells; [5]): 990 nM
- IC50 (H2122 NSCLC cells; [6]): 330 nM
- IC50 (H1975 NSCLC cells; [7]): 830 nM

Compound: C[C@]12C[C@H](Oc3ccc(NC(=O)CCCCN4CCOCC4)c(C(F)(F)F)c3)[C@@H]3c4ccc(O)cc4CC[C@H]3[C@@H]1CC[C@@H]2O [JD157, N-(4-(((8S,9S,11S,13S,14S,17S)-3,17-Dihydroxy-13-methyl-7,8,9,11,12,13,14,15,16,17-deca-hydro-6H-cyclopenta[a]phenanthren-11-yl)oxy)-2-(trifluoromethyl)phenyl)-5-morpholino-pentanamide]
- IC50 (A549 NSCLC cells; [2]): 3950 nM
- IC50 (H2122 NSCLC cells; [3]): 1280 nM
- IC50 (H1975 NSCLC cells; [4]): 1800 nM
